Reference: US20240132484A1, “BROAD SPECTRUM ANTIVIRAL COMPOUNDS TARGETING THE SKI COMPLEX” (priority 2020, published 2024)
“And” between values parts separate entries of the source, which are not always exact repeats. Identical values can stand only once. “Also recorded” adds a separate entry of the source. Like-named read-outs stand apart in the source and are kept apart here.

How the values were obtained:
[1] = system: SARS2; assay type: cell-based, SARS-CoV-2; settings: for Infection Data, Average, Mean percentage infection relative to DMSO control: Average of Exp 1 (SMW491) and Exp 2 (SMW492); for Infection Data, Percentage Infection Relative to Appropriate DMSO Control: single well, avg background subtraction; for Percentage Inhibition Average 1 μM / Screening data (Relative infection to DMSO controls) Average 1 μM: SARS2, 1 μM; for Screening data (Relative infection to DMSO controls) Average 1 μM / Screening data (Relative infection to DMSO controls) Average 5 μM / Screening data (Relative infection to DMSO controls) Average 10 μM / Screening data (Relative infection to DMSO controls) Average 25 μM / Screening data (Relative infection to DMSO controls) Average 50 μM / Average (relative infection to DMSO over the 5 tested concentrations): 100=DMSO control; for Percentage Inhibition Average 5 μM / Screening data (Relative infection to DMSO controls) Average 5 μM: SARS2, 5 μM; for Percentage Inhibition Average 10 μM / Screening data (Relative infection to DMSO controls) Average 10 μM: SARS2, 10 μM; for Percentage Inhibition Average 25 μM / Screening data (Relative infection to DMSO controls) Average 25 μM: SARS2, 25 μM; for Percentage Inhibition Average 50 μM / Screening data (Relative infection to DMSO controls) Average 50 μM: SARS2, 50 μM; for Average (relative infection to DMSO over the 5 tested concentrations): SARS2, average over 1 to 50 uM; for Percentage Infection Relative to Appropriate DMSO Control with Avg Background Subtraction: Greiner Celigo plates; for Infection Data, Average, Mean: average of Exp 1-3 (SMW475, SMW477, SMW478)
[2] = system: cells (nuclei count); settings: for Relative cell count to DMSO controls, Average 1 μM / Relative cell count to DMSO controls, Average 5 μM / Relative cell count to DMSO controls, Average 10 μM / Relative cell count to DMSO controls, Average 25 μM / Relative cell count to DMSO controls, Average 50 μM: toxicity data, 100=DMSO control; for Toxicity Data, Average, Mean percentage relative to DMSO control: Average of Exp 1 (SMW491) and Exp 2 (SMW492); for Toxicity Data, Percentage Relative to Appropriate DMSO Control: single well; for Relative cell count to DMSO controls, Average (for correlation analysis): average value over the 5 tested concentrations (1 to 50 uM); for Toxicity Data, Average, Mean: average of Exp 1-3 (SMW475, SMW477, SMW478)

Q: `COc1ccc(CNCCc2ccccc2F)c(OCC(O)CN2CCCC2)c1` (racemic) [SILCS43] was tested. Which “SARS2 antiviral activity” value [1] did it give?
A: The value was “highest activity to date; also recorded: most potent”.

Q: And the “potency relative to UMB18 (more potent)” value [1]?
A: The value was 3-4.

Q: What about the “Infection Data, Average, Mean percentage infection relative to DMSO control” value ([1]; n=4, 1 uM) of the same molecule?
A: The value was 18.21%.

Q: And the “Infection Data, Average, Mean percentage infection relative to DMSO control” value ([1]; n=4, 5 uM)?
A: Its value is 6.50%.

Q: And the “Infection Data, Average, Mean percentage infection relative to DMSO control” value ([1]; n=4, 10 uM)?
A: The value was 0.85%.

Q: What about the “Infection Data, Average, Mean percentage infection relative to DMSO control” value ([1]; n=4, 25 uM) of the same molecule?
A: The value was 6.12%.

Q: What about the “Infection Data, Average, Mean percentage infection relative to DMSO control” value ([1]; n=4, 50 uM) of the same molecule?
A: The value was −13.34%.

Q: And the “Infection Data, Percentage Infection Relative to Appropriate DMSO Control” value ([1]; Exp 1 (SMW491), 1 uM)?
A: Its value is 11.14% and 9.36%.

Q: And the “Infection Data, Percentage Infection Relative to Appropriate DMSO Control” value ([1]; Exp 1 (SMW491), 5 uM)?
A: The value was 5.93% and 4.01%.

Q: And the “Infection Data, Percentage Infection Relative to Appropriate DMSO Control” value ([1]; Exp 1 (SMW491), 10 uM)?
A: Its value is 0.28% and −0.66%.

Q: What about the “Infection Data, Percentage Infection Relative to Appropriate DMSO Control” value ([1]; Exp 1 (SMW491), 25 uM) of the same molecule?
A: The value was 1.98% and −0.83%.

Q: And the “Infection Data, Percentage Infection Relative to Appropriate DMSO Control” value ([1]; Exp 1 (SMW491), 50 uM)?
A: The value was −10.07%.

Q: And the “Infection Data, Percentage Infection Relative to Appropriate DMSO Control” value ([1]; Exp 2 (SMW492), 1 uM)?
A: The value was 18.42% and 33.91%.

Q: What about the “Infection Data, Percentage Infection Relative to Appropriate DMSO Control” value ([1]; Exp 2 (SMW492), 10 uM) of the same molecule?
A: The value was 1.81% and 1.99%.

Q: And the “Infection Data, Percentage Infection Relative to Appropriate DMSO Control” value ([1]; Exp 2 (SMW492), 50 uM)?
A: The value was −16.61%.

Q: What about the “Percentage Inhibition Average 1 μM” value [1] of the same molecule?
A: The value was 81.79%.

Q: What about the “Screening data (Relative infection to DMSO controls) Average 1 μM” value [1] of the same molecule?
A: The value was 18.21.

Q: What about the “Percentage Inhibition Average 5 μM” value [1] of the same molecule?
A: The value was 93.50%.

Q: And the “Screening data (Relative infection to DMSO controls) Average 5 μM” value [1]?
A: The value was 6.50.

Q: What about the “Percentage Inhibition Average 10 μM” value [1] of the same molecule?
A: Its value is 99.15%.

Q: What about the “Screening data (Relative infection to DMSO controls) Average 10 μM” value [1] of the same molecule?
A: Its value is 0.85.

Q: And the “Percentage Inhibition Average 25 μM” value [1]?
A: Its value is 93.88%.

Q: What about the “Screening data (Relative infection to DMSO controls) Average 25 μM” value [1] of the same molecule?
A: Its value is 6.12.

Q: And the “Percentage Inhibition Average 50 μM” value [1]?
A: Its value is 113.34%.

Q: What about the “Screening data (Relative infection to DMSO controls) Average 50 μM” value [1] of the same molecule?
A: Its value is −13.34.

Q: What about the “Average (relative infection to DMSO over the 5 tested concentrations)” value [1] of the same molecule?
A: The value was 3.67.

Q: What about the “apparent IC50” value ([1]; racemic mixture) of the same molecule?
A: The value was “high nanomolar range”.

Q: And the “Relative cell count to DMSO controls, Average 1 μM” value [2]?
A: The value was 154.73.

Q: And the “Relative cell count to DMSO controls, Average 5 μM” value [2]?
A: The value was 151.78.

Q: And the “Relative cell count to DMSO controls, Average 10 μM” value [2]?
A: Its value is 132.39.

Q: And the “Relative cell count to DMSO controls, Average 25 μM” value [2]?
A: Its value is 136.27.

Q: What about the “Relative cell count to DMSO controls, Average 50 μM” value [2] of the same molecule?
A: The value was 0.01.

Q: What about the “Toxicity Data, Average, Mean percentage relative to DMSO control” value ([2]; n=4, 1 uM) of the same molecule?
A: Its value is 154.73%.

Q: What about the “Toxicity Data, Average, Mean percentage relative to DMSO control” value ([2]; n=4, 5 uM) of the same molecule?
A: The value was 151.78%.

Q: And the “Toxicity Data, Average, Mean percentage relative to DMSO control” value ([2]; n=4, 10 uM)?
A: The value was 132.39%.

Q: And the “Toxicity Data, Average, Mean percentage relative to DMSO control” value ([2]; n=4, 25 uM)?
A: Its value is 136.27%.

Q: What about the “Toxicity Data, Average, Mean percentage relative to DMSO control” value ([2]; n=4, 50 uM) of the same molecule?
A: The value was 0.01%.

Q: What about the “Toxicity Data, Percentage Relative to Appropriate DMSO Control” value ([2]; Exp 1 (SMW491), 1 uM) of the same molecule?
A: Its value is 151% and 166%.

Q: What about the “Toxicity Data, Percentage Relative to Appropriate DMSO Control” value ([2]; Exp 1 (SMW491), 5 uM) of the same molecule?
A: The value was 130% and 166%.

Q: What about the “Toxicity Data, Percentage Relative to Appropriate DMSO Control” value ([2]; Exp 1 (SMW491), 10 uM) of the same molecule?
A: The value was 118% and 121%.

Q: What about the “Toxicity Data, Percentage Relative to Appropriate DMSO Control” value ([2]; Exp 1 (SMW491), 25 uM) of the same molecule?
A: Its value is 121% and 136%.

Q: What about the “Toxicity Data, Percentage Relative to Appropriate DMSO Control” value ([2]; Exp 1 (SMW491), 50 uM) of the same molecule?
A: Its value is 0%.

Q: And the “Toxicity Data, Percentage Relative to Appropriate DMSO Control” value ([2]; Exp 2 (SMW492), 1 uM)?
A: The value was 156% and 145%.

Q: And the “Toxicity Data, Percentage Relative to Appropriate DMSO Control” value ([2]; Exp 2 (SMW492), 5 uM)?
A: The value was 155% and 156%.

Q: And the “Toxicity Data, Percentage Relative to Appropriate DMSO Control” value ([2]; Exp 2 (SMW492), 10 uM)?
A: The value was 145% and 146%.

Q: And the “Toxicity Data, Percentage Relative to Appropriate DMSO Control” value ([2]; Exp 2 (SMW492), 25 uM)?
A: Its value is 143% and 145%.

Q: And the “Toxicity Data, Percentage Relative to Appropriate DMSO Control” value ([2]; Exp 2 (SMW492), 50 uM)?
A: Its value is 0%.

Q: What about the “Relative cell count to DMSO controls, Average (for correlation analysis)” value [2] of the same molecule?
A: The value was 115.04.

Q: Which results are given for `CCN(CC)CCN(Cc1ccccn1)Cc1ccc(C)o1` [SILCS36]?
A: Percentage Infection Relative to Appropriate DMSO Control with Avg Background Subtraction ([1]; Exp 1 (SMW475), 1 uM): 112.32% and 102.95% and 77.60%; Percentage Infection Relative to Appropriate DMSO Control with Avg Background Subtraction ([1]; Exp 1 (SMW475), 5 uM): 103.78% and 96.97% and 70.88%; Percentage Infection Relative to Appropriate DMSO Control with Avg Background Subtraction ([1]; Exp 1 (SMW475), 10 uM): 100.05% and 88.33% and 67.06%; Percentage Infection Relative to Appropriate DMSO Control with Avg Background Subtraction ([1]; Exp 1 (SMW475), 25 uM): 42.48% and 40.16% and 33.52%; Percentage Infection Relative to Appropriate DMSO Control with Avg Background Subtraction ([1]; Exp 2 (SMW477), 1 uM): 136.49% and 133.25% and 131.77%; Percentage Infection Relative to Appropriate DMSO Control with Avg Background Subtraction ([1]; Exp 2 (SMW477), 5 uM): 140.43% and 143.68% and 122.53%; Percentage Infection Relative to Appropriate DMSO Control with Avg Background Subtraction ([1]; Exp 2 (SMW477), 10 uM): 111.26% and 112.57% and 100.88%; Percentage Infection Relative to Appropriate DMSO Control with Avg Background Subtraction ([1]; Exp 2 (SMW477), 25 uM): 70.58% and 67.21% and 40.18%; Percentage Infection Relative to Appropriate DMSO Control with Avg Background Subtraction ([1]; Exp 3 (SMW478), 1 uM): 116.69% and 121.41% and 101.10%; Percentage Infection Relative to Appropriate DMSO Control with Avg Background Subtraction ([1]; Exp 3 (SMW478), 5 uM): 103.27% and 118.27% and 106.75%; Percentage Infection Relative to Appropriate DMSO Control with Avg Background Subtraction ([1]; Exp 3 (SMW478), 10 uM): 99.80% and 128.16% and 117.51%; Percentage Inhibition Average 1 μM [1]: −14.84%; Screening data (Relative infection to DMSO controls) Average 1 μM [1]: 114.84; Percentage Inhibition Average 5 μM [1]: −11.84%; Screening data (Relative infection to DMSO controls) Average 5 μM [1]: 111.84; Percentage Inhibition Average 10 μM [1]: −2.85%; Screening data (Relative infection to DMSO controls) Average 10 μM [1]: 102.85; Percentage Inhibition Average 25 μM [1]: 42.56%; Screening data (Relative infection to DMSO controls) Average 25 μM [1]: 57.44; Percentage Inhibition Average 50 μM [1]: 72.63%; Screening data (Relative infection to DMSO controls) Average 50 μM [1]: 27.37; Average (relative infection to DMSO over the 5 tested concentrations) [1]: 82.87; Infection Data, Average, Mean ([1]; n 9, 1 uM): 114.84%; Infection Data, Average, Mean ([1]; n 9, 5 uM): 111.84%; Infection Data, Average, Mean ([1]; n 9, 10 uM): 102.85%; Infection Data, Average, Mean ([1]; n 9, 25 uM): 57.44%; Infection Data, Average, Mean ([1]; n 9, 50 uM): 27.37%; Relative cell count to DMSO controls, Average 1 μM [2]: 87.6; Relative cell count to DMSO controls, Average 5 μM [2]: 84.91; Relative cell count to DMSO controls, Average 10 μM [2]: 88.15; Relative cell count to DMSO controls, Average 25 μM [2]: 91.83; Relative cell count to DMSO controls, Average 50 μM [2]: 63.21; Toxicity Data, Average, Mean ([2]; n 9, 1 uM): 87.60%; Toxicity Data, Average, Mean ([2]; n 9, 5 uM): 84.91%; Toxicity Data, Average, Mean ([2]; n 9, 10 uM): 88.15%; Toxicity Data, Average, Mean ([2]; n 9, 25 uM): 91.83%; Toxicity Data, Average, Mean ([2]; n 9, 50 uM): 63.21%; Relative cell count to DMSO controls, Average (for correlation analysis) [2]: 83.14
